{"source": "patent US20030224503A1", "about": "“In-situ microorganism generation for treating subsurface DNAPL source zones” (priority 2002, published 2003)", "tested_on": "groundwater microorganisms", "details": "both DNAPL test sites (MW-12R, RW-1)", "from_the_text": "The test sites are located at a property where fractured bedrock has been contaminated with PCE and TCE DNAPL to a depth of approximately 120 feet below ground surface."}
{"compound": "CC(=O)O", "note": "[acetic acid]", "values": [{"measurement": "adaptation of groundwater microorganisms", "setting": "after injection of acetic acid, FIG. 4", "value": "increased"}, {"measurement": "change in biomass of groundwater microorganisms", "setting": "fractured bedrock, after vs before injection of acetic acid, FIG. 3", "value": "increased"}]}
